We go through 6 molecules from patent US20130225633A1, “PHENYL HETEROCYCLOALKYL GLUCOCORTICOID RECEPTOR MODULATORS” (Corcept Therapeutics, Inc., priority 2012, published 2013).

In one assay the target is T1, human recombinant GR (Homo sapiens, UniProt P04150).
T1 construct: purchased PanVera P2812
T1 sequence (P04150 1-777): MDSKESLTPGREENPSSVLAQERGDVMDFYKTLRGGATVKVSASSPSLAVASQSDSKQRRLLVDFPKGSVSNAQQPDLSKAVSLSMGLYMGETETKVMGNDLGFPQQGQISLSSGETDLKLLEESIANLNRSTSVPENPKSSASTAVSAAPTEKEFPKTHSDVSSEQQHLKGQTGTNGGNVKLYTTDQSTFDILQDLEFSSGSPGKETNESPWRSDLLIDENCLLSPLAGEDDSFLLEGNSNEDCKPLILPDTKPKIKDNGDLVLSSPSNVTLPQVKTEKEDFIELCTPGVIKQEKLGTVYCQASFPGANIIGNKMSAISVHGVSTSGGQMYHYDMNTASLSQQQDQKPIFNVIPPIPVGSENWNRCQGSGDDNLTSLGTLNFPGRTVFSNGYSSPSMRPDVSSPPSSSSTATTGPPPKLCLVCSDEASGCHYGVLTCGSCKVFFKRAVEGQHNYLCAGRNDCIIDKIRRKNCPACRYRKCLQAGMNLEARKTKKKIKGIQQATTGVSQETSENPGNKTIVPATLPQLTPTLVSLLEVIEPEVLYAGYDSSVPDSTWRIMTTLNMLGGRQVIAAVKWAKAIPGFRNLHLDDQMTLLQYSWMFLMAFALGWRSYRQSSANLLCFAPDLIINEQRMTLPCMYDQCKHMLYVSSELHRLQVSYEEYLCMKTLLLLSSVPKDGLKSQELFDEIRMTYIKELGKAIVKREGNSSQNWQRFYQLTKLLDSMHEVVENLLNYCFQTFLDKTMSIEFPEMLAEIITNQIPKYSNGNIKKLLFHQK
The assay can be described thus: Human GR fluorescence polarisation (FP) binding assay (Example 23). How it is done: The following is a description of a FP assay for measuring compound inhibition of labelled glucocorticoid binding to the human recombinant GR.
The binding affinity of test compounds was determined using a FP binding assay using human recombinant GR (PanVera P2812) and a fluorescent labelled glucocorticoid ligand (Fluorome GS Red) (PanVera P2894). The presence of inhibitors prevents the formation of a GS Red/GR complex resulting in a decrease in the measured polarisation value. The change in polarisation value in the presence of test compounds is used to calculate the binding affinity of the compound for GR.
This assay was performed in 384 well, black, round-bottom, polypropylene micro titre plates in a final volume of 20 μl. The assay contained 5 μl 1 nM GR (final concentration), 5 μl 0.5 nM Fluorome GS Red (final concentration) in the presence of 10 μl test compounds. Positive control wells (high polarisation) receive, 10 μl 2% (v:v) DMSO vehicle (1% (v/v) final concentration)+5 μl 1 nM GR and 5 μl 0.5 nM Fluorome GS Red. […] Assay blank background wells (used for normalisation) receive 15 μl 1×GS screening buffer+5 μl GR.
For the IC50 determination (concentration of compound that displaces 50% of the bound GS Red), compounds were tested at eight different concentrations in duplicate in two independently performed experiments. Compounds were prepared as solubilised solids at 10 mM in DMSO. On the day of assay, an 8 point half-log serial dilution (55 μl DMSO+25 μl compound solution) was prepared. A 1:50 dilution (1 μl compound solution+49 μl 1×GR screening buffer) was prepared for each compound. The compounds were prepared at 2× final assay concentration.
The plates were mixed and incubated for 4 hour at room temperature. FP was measured using an Envision Excite plate reader with 535 nm excitation and 590 nm emission interference filters.
Milli-polarisation (mP) values were calculated using the below equation—
where S and P are assay blank background subtracted fluorescence units, G=G-factor (1.07).
Compound IC50 values were calculated by plotting a [compound] v. % inhibition curve and fitting the data to a 4-parameter logistic fit equation.
Reagents. 10×GR screening buffer (100 mM potassium phosphate pH 7.4, 200 mM Na2MoO4, 1 mM EDTA, 20% (v/v) DMSO). To prepare 1×GR screening buffer, combine 1 ml 10×GR screening buffer (PanVera P2814)+1 ml stabilising peptide (PanVera P2815)+7.95 ml 4° C. MQ water. Add 50 μl 1M DTT, vortex and place on ice until use.
Background: Polarisation of emitted light reports the rotation of a fluorescent probe.

Assay [1] has as its target T2, GR (TAT induction in HepG2 cells) (Homo sapiens, UniProt P04150).
T2 construct: host or cells: HepG2 (human hepatocellular carcinoma)
T2 sequence (P04150 1-777): T1 sequence (P04150 1-777)
In words: cell-based. The conditions noted are these: read-out: GR functional Ki. Here is the method:
Glucocorticoid mediated activation of TAT occurs by transactivation of glucocorticoid response elements in the TAT promoter by glucocorticoid receptor-agonist complex.
TAT activity was measured as outlined in the literature by A. Ali et al., J. Med. Chem., 2004, 47, 2441-2452.
HepG2 cells were cultured using MEME media supplemented with 10% (v/v) foetal bovine serum; 2 mM L-glutamine and 1% (v/v) NEAA at 37° C., 5%/95% (v/v) CO2/air. The HepG2 cells were counted and adjusted to yield a density of 0.125×10^6 cells/ml in RPMI 1640 without phenol red, 10% (v/v) charcoal stripped FBS, 2 mM L-glutamine and seeded at 25,000 cells/well in 200 μl into 96 well, sterile, tissue culture micro titre plates, and incubated at 37° C., 5% CO2 for 24 hours
Growth media was removed and replaced with assay media {RPMI 1640 without phenol red, 2 mM L-glutamine+10 μM forskolin}. […] Compounds were serially half log diluted in 100% (v/v) dimethylsupfoxide from a 10 mM stock.
HepG2 cells were then lysed with 30 μl of cell lysis buffer containing a protease inhibitor cocktail for 15 minutes at 4° C. 155 μl of substrate mixture was then added containing 5.4 mM Tyrosine sodium salt, 10.8 mM alpha ketoglutarate and 0.06 mM pyridoxal 5′ phosphate in 0.1M potassium phosphate buffer (pH 7.4). After 2 hours incubation at 37° C. the reaction was terminated by the addition of 15 μl of 10M aqueous potassium hydroxide solution, and the plates incubated for a further 30 minutes at 37° C. The TAT activity product was measured by absorbance at λ 340 nm.
[compound] and fitting the data to a 4 parameter logistic equation.

What is called pKi is the Ki on a negative log10 scale, so that one unit is a factor of ten.

pKi: −log10 of the molar value. A value given as a limit tells only on which side of the number the result lay.

On to `COC[C@]12Cc3cnn(-c4ccc(F)cc4)c3C=C1CCN(S(=O)(=O)c1ccc(N3CCC(F)(F)C3)cc1)C2` [Example 16, (R)-1-(4-Fluoro-phenyl)-6-[4-(3,3-difluoropyrrolidin-1-yl)-benzenesulfonyl]-4a-methoxymethyl-4,4a,5,6,7,8-hexahydro-1H-1,2,6-triaza-cyclopenta[b]naphthalene], for which the figures for the pKi (at human recombinant GR; in assay [1]) were more than 9.30 and less than 7.00, respectively.

For `COC[C@]12Cc3cnn(-c4ccc(F)cc4)c3C=C1CCN(S(=O)(=O)c1ccc(N3CCC[C@H]3C)cc1)C2` [Example 17, (R)-1-(4-Fluoro-phenyl)-6-[4-((R)-2-methylpyrrolidin-1-yl)-benzenesulfonyl]-4a-methoxymethyl-4,4a,5,6,7,8-hexahydro-1H-1,2,6-triaza-cyclopenta[b]naphthalene], the pKi on human recombinant GR is more than 9.30; in assay [1] it was less than 7.00.

As for `COC[C@@H]1CCCN1c1ccc(S(=O)(=O)N2CCC3=Cc4c(cnn4-c4ccc(F)cc4)C[C@]3(COC)C2)cc1` [Example 18, (R)-1-(4-Fluoro-phenyl)-6-[4-((S)-2-(methoxymethyl)pyrrolidin-1-yl)-benzenesulfonyl]-4a-methoxymethyl-4,4a,5,6,7,8-hexahydro-1H-1,2,6-triaza-cyclopenta[b]naphthalene], the pKi at human recombinant GR was 9.00 to 9.30; in assay [1], 7.00 to 7.30.

As for `COC[C@]12Cc3cnn(-c4ccc(F)cc4)c3C=C1CCN(S(=O)(=O)c1ccc(N3CC[C@H](OC)C3)cc1)C2` [Example 19, (R)-1-(4-Fluoro-phenyl)-6-[4-((S)-3-methoxypyrrolidin-1-yl)-benzenesulfonyl]-4a-methoxymethyl-4,4a,5,6,7,8-hexahydro-1H-1,2,6-triaza-cyclopenta[b]naphthalene], the figures for the pKi (at human recombinant GR; in assay [1]) were more than 9.30 and less than 7.00, respectively.

Consider `COC[C@]12Cc3cnn(-c4ccc(F)cc4)c3C=C1CCN(S(=O)(=O)c1ccc(N3CCCCC3)cc1)C2` [Example 20, (R)-1-(4-Fluoro-phenyl)-6-[4-(piperidin-1-yl)-benzenesulfonyl]-4a-methoxymethyl-4,4a,5,6,7,8-hexahydro-1H-1,2,6-triaza-cyclopenta[b]naphthalene], for which the pKi on human recombinant GR was more than 9.30; in assay [1] it was 7.00 to 7.30.

Turning to `COC[C@]12Cc3cnn(-c4ccc(F)cc4)c3C=C1CCN(S(=O)(=O)c1ccc(N3CCC(C)(C)C3)cc1)C2` [Example 21, (R)-1-(4-Fluoro-phenyl)-6-[4-(3,3-dimethylpyrrolidin-1-yl)-benzenesulfonyl]-4a-methoxymethyl-4,4a,5,6,7,8-hexahydro-1H-1,2,6-triaza-cyclopenta[b]naphthalene], the pKi is more than 9.30 at human recombinant GR and less than 7.00 in assay [1].
